# Measurements from ChEMBL document CHEMBL5715954, “Silencing c-Myc translation as a therapeutic strategy through targeting PI3Kδ and CK1ε in hematological malignancies” (Blood, 2017).
# Key:
# Set-up in all cases: scale not given: the % may be the effect or the level left
# [1] = target: Calcium/calmodulin-dependent protein kinase kinase 2 (Homo sapiens) (UniProt Q96RR4); test: Inhibition of human CAMKK2 assessed as enzyme activity at 1 uM using myelin basic protein as substrate preincubated for 20 mins followed by [gamma-33P]-ATP addition and measured after 120 mins by radiometric Hot-SpotSM Kinase assay relative to control
# [2] = target: T1, Tyrosine-protein kinase JAK3 (Homo sapiens) (UniProt P52333); test: Inhibition of human JAK3 assessed as enzyme activity at 1 uM using GGEEEEYFELVKKKK as substrate preincubated for 20 mins followed by [gamma-33P]-ATP addition and measured after 120 mins by radiometric Hot-SpotSM Kinase assay relative to control
# T1 sequence (whole entry): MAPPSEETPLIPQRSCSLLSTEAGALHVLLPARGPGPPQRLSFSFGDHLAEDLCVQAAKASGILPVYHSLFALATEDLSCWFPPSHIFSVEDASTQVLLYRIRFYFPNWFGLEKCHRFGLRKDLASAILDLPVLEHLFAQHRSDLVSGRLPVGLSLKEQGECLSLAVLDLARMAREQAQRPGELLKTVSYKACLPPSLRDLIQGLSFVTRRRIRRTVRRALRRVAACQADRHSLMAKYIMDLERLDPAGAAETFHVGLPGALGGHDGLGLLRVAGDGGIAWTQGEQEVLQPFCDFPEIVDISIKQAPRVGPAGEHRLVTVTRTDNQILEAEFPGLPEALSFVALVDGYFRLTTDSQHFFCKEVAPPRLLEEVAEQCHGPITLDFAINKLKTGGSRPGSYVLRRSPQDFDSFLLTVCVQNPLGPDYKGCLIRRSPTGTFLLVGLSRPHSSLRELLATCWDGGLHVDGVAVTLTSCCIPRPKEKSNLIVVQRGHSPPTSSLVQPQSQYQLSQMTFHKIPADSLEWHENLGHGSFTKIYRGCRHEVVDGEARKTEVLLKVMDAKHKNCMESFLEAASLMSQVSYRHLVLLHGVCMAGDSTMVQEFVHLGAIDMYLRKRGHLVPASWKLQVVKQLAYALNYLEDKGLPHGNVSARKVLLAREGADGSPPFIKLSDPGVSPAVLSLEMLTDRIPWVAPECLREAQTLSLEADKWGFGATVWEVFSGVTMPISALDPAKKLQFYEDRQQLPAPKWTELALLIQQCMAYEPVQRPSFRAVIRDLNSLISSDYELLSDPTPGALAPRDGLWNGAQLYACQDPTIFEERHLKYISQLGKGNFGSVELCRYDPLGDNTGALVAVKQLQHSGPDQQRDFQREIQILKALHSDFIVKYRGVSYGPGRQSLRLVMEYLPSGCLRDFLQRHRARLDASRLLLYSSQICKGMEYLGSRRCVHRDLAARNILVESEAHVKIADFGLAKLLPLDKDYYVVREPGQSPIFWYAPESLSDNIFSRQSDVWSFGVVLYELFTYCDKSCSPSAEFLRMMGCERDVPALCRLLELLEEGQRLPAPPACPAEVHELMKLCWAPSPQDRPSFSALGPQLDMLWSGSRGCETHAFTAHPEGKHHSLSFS
# [3] = target: T2, Dual specificity mitogen-activated protein kinase kinase 7 (Homo sapiens) (UniProt O14733); test: Inhibition of human MKK7 assessed as enzyme activity at 1 uM using JNK (K55M) as substrate preincubated for 20 mins followed by [gamma-33P]-ATP addition and measured after 120 mins by radiometric Hot-SpotSM Kinase assay relative to control
# T2 sequence (whole entry): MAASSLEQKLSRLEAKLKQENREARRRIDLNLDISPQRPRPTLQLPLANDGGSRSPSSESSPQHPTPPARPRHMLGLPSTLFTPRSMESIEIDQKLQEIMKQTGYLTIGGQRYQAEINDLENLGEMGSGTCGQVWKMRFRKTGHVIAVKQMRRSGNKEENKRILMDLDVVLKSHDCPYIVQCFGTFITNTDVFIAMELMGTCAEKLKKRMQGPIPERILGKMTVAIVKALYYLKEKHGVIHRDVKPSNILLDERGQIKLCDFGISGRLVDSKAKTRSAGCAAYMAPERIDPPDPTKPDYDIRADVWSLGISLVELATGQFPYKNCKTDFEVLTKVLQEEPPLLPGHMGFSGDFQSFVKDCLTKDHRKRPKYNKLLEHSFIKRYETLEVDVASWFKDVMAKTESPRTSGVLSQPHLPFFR
# [4] = target: T3, NUAK family SNF1-like kinase 2 (Homo sapiens) (UniProt Q9H093); test: Inhibition of human SNARK assessed as enzyme activity at 1 uM using KKKVSRSGLYRSPSMPENLNRPR as substrate preincubated for 20 mins followed by [gamma-33P]-ATP addition and measured after 120 mins by radiometric Hot-SpotSM Kinase assay relative to control
# T3 sequence (whole entry): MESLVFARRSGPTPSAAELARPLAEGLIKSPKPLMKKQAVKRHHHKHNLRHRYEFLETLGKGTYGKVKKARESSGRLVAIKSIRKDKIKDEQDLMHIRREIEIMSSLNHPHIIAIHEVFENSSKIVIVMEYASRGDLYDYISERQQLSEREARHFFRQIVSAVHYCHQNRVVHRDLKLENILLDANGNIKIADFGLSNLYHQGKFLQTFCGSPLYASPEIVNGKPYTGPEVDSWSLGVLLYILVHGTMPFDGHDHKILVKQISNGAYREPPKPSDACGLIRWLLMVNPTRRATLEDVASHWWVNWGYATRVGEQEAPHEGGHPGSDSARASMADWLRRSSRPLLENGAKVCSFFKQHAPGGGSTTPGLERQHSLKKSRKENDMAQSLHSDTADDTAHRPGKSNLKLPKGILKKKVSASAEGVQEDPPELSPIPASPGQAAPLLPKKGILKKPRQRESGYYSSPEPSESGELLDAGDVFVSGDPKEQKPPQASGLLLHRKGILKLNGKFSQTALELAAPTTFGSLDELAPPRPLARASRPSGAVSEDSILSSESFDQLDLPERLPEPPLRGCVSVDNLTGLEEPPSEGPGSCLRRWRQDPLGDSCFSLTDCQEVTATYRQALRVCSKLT
# [5] = target: Wee1-like protein kinase (Homo sapiens) (UniProt P30291); test: Inhibition of human WEE1 assessed as enzyme activity at 1 uM using CDK1 (D146N)/cyclin B1 as substrate preincubated for 20 mins followed by [gamma-33P]-ATP addition and measured after 120 mins by radiometric Hot-SpotSM Kinase assay relative to control
# Sequence of Wee1-like protein kinase (Homo sapiens) (P30291 whole entry, looked up): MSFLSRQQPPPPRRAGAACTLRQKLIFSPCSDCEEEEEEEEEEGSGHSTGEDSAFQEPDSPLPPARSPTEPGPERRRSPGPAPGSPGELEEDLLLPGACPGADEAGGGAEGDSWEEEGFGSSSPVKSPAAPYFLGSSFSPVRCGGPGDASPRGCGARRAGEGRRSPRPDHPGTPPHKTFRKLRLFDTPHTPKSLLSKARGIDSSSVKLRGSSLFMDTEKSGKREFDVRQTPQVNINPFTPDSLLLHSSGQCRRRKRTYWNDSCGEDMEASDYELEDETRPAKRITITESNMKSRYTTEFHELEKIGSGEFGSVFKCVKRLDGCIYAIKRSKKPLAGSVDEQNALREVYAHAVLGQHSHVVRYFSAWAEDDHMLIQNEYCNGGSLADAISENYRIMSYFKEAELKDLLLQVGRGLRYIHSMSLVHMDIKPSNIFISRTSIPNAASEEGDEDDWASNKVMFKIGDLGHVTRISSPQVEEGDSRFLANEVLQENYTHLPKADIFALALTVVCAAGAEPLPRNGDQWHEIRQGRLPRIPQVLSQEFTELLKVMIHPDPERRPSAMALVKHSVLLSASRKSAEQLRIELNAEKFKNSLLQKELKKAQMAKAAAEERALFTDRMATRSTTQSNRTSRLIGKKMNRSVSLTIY
# Sequence of Calcium/calmodulin-dependent protein kinase kinase 2 (Homo sapiens) (Q96RR4 2-588 limits assumed): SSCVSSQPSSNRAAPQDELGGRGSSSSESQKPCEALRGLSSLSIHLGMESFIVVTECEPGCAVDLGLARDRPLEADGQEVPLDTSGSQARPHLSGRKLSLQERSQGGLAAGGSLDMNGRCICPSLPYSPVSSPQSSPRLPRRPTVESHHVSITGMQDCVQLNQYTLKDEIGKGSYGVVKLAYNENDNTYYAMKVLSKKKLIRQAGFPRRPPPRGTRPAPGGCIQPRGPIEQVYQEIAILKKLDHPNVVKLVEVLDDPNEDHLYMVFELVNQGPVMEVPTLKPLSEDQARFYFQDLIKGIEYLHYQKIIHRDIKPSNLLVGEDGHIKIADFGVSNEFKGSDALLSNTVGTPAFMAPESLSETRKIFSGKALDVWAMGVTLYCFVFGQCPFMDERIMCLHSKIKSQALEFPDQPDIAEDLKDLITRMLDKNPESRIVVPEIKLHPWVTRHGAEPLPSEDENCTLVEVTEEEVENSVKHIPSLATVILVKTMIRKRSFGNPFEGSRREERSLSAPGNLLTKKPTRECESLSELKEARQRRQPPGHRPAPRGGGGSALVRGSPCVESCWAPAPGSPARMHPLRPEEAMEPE
Structure (SMILES),Activity [1] [%],Activity [2] [%],Activity [3] [%],Activity [4] [%],Activity [5] [%]
CC[C@H](Nc1ncnc2[nH]cnc12)c1nc2cccc(F)c2c(=O)n1-c1ccccc1,106,94.3,95.1,93.2,96.7
CC(C)Oc1ccc(-c2nn([C@@H](C)c3oc4ccc(F)cc4c(=O)c3-c3cccc(F)c3)c3ncnc(N)c23)cc1F [UMBRALISIB],98.5,91.2,96.9,95.9,106
C[C@H](Nc1ncnc2nc[nH]c12)c1cc2cccc(Cl)c2c(=O)n1-c1ccccc1,96.6,95.2,96,93.2,87.3
